Here are results for five molecules from paper PMC7530726, “A structure-based computational workflow to predict liability and binding modes of small molecules to hERG” (Scientific Reports, 2020).

The target in data set [1] is T1, hERG Y652A (Homo sapiens, UniProt Q12809, Y652A). Put plainly: in vitro. The settings on record: pH 7.4, Percent current inhibition hERG Y652A.
Data set [2] concerns serotonin 5-hydroxytryptamine receptor 4 (5HT-4). The settings on record: cited from earlier work.
Data set [3] deals with T2, hERG F656A (Homo sapiens, UniProt Q12809, F656A). The experiment in a line: in vitro.
The subject of another data set is hERG. The settings on record: cited from earlier work.
The next data set concerns the target T3, WT hERG (Homo sapiens, UniProt Q12809).
T3 construct: purchased Life Technologies
Put plainly: Predictor hERG Fluorescence Polarization Assay kit. The format is binding. The procedure:
All measurements were made according to the manufacturer’s instruction. Fluorescence polarization was measured using PerkinElmer EnVision® Multilabel reader (PerkinElmer, Woodbridge, ON, Canada).

For data set [4], the target named is T1, hERG Y652A. The following applies: 1 µM.
For data set [5], the target named is T4, hERG WT (Homo sapiens, UniProt Q12809).
Data set [6] concerns the target T1, hERG Y652A. Put plainly: Whole-cell patch clamp (automated), HEK cells stably expressing hERGY652A.
Data set [7] deals with T4, hERG WT. Put plainly: in vitro. The settings on record: Percent current inhibition hERG WT.
The target of data set [8] is T4, hERG WT. The following applies: 1 µM.
Data set [9] deals with T2, hERG F656A. The settings on record: 1 µM.
For data set [10], the target named is T2, hERG F656A. The experiment in a line: Whole-cell patch clamp (manual, 135 mM K+), HEK cells stably expressing hERGF656A.
Where [11] appears, read: pH 7.4, Percent current inhibition hERG F656A.
[12] abbreviates: pH 7.4, reduction in the inhibition of F656A mutant when compared to the WT.
The mark [13] stands for this setting: read-out: hERG IC50 from literature, Patch clamp HEK293 cells @ 23 ± 1 °C, ref Toga et al.
Setting [14] is: read-out: hERG IC50 from literature, Patch clamp HEK293 cells @ 34 ± 1 °C, ref Wu et al.

Where “and” joins values, the source holds several entries; their conditions need not be identical. Equal entries are not always repeated. Where two headings read alike, the source gives them in different places.

T1 sequence (Q12809 whole entry Y652A): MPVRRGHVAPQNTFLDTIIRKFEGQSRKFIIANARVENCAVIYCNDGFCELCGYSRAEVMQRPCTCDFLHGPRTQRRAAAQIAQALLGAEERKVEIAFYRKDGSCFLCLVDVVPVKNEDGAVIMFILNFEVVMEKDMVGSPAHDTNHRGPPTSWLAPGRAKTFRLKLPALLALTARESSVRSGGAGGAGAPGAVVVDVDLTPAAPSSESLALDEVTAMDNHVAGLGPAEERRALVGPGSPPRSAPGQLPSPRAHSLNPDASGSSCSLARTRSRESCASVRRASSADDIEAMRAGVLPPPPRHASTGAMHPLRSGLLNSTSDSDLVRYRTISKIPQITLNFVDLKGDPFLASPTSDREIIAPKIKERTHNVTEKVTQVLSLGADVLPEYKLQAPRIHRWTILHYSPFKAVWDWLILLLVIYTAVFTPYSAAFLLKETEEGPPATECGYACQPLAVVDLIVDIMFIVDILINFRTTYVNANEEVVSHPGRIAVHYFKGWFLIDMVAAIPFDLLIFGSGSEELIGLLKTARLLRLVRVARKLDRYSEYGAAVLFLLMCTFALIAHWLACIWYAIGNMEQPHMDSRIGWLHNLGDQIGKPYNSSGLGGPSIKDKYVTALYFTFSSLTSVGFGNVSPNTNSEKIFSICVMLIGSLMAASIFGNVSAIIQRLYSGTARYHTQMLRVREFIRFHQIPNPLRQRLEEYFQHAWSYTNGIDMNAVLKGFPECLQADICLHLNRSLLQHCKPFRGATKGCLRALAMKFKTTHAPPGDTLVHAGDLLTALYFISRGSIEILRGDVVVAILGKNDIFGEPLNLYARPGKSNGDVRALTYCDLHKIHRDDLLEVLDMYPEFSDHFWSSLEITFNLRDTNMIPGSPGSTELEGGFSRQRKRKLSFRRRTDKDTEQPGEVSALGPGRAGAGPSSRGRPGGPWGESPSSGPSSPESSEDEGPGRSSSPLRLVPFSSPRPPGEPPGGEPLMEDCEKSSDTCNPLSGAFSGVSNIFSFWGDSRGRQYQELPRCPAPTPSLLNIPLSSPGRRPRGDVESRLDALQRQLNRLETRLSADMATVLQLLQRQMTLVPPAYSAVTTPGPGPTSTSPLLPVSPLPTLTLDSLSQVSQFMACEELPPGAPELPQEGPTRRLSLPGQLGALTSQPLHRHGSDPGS
T2 sequence (Q12809 whole entry F656A): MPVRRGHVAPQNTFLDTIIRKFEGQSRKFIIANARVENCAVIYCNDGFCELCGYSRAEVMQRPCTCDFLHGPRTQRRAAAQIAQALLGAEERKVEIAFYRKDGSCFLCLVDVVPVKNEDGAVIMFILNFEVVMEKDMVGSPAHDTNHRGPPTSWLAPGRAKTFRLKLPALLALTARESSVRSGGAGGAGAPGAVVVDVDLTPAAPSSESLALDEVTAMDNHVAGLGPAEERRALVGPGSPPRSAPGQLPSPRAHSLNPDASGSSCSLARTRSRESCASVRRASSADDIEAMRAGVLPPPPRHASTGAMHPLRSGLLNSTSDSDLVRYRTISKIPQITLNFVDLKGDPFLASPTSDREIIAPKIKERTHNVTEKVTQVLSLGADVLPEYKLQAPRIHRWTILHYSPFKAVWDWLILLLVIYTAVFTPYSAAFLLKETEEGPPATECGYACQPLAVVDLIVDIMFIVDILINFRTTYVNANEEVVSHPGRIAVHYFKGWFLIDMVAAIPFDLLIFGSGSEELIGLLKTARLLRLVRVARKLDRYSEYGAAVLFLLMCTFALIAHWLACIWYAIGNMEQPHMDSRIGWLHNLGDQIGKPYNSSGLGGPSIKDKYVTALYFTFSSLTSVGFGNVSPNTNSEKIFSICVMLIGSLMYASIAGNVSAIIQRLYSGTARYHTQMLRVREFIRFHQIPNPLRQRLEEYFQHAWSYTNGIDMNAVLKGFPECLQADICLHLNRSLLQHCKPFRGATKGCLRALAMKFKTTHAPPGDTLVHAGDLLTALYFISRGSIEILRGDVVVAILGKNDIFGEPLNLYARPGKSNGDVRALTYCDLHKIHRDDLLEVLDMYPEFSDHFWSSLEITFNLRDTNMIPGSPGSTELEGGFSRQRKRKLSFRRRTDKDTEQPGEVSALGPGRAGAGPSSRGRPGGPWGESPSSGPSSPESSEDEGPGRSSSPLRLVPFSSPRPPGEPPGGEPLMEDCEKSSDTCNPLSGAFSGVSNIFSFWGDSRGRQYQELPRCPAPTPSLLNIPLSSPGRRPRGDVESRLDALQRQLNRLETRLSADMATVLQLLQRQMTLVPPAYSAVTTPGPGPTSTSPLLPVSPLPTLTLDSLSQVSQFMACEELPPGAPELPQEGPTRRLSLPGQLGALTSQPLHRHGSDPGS
T4 sequence (Q12809 whole entry): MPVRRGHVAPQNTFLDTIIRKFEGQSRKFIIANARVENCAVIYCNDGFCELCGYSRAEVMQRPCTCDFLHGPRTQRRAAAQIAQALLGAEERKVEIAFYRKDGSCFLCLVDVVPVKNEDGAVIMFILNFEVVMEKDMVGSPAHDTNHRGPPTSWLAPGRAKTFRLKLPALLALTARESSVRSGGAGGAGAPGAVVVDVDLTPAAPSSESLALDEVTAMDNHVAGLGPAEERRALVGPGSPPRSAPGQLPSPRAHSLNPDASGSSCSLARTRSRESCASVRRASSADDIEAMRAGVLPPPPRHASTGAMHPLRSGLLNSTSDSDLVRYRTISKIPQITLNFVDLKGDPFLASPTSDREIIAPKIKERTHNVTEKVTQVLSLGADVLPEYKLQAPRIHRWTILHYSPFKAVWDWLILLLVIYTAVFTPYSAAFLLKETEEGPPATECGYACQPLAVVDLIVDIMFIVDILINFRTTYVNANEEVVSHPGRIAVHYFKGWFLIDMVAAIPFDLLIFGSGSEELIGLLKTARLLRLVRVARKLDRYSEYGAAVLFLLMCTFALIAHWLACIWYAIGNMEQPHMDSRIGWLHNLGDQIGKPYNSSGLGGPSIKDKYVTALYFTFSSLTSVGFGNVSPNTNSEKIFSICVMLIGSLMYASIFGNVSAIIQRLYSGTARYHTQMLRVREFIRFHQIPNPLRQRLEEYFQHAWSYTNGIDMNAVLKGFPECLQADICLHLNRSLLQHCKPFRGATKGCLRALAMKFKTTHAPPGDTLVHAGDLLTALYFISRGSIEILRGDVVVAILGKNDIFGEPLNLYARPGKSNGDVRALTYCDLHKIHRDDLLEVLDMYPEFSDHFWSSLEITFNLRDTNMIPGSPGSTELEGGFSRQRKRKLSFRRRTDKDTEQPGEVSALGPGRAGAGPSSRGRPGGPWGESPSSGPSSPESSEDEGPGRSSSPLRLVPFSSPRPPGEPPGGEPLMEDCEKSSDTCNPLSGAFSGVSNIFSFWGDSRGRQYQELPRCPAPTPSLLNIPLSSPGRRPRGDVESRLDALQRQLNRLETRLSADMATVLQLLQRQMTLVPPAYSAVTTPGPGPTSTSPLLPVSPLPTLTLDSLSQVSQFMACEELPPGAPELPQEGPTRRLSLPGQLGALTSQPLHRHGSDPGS
T3 sequence (Q12809 whole entry): as above

As for `COc1cc(N)c(Cl)cc1C(=O)NC1CCN(CCCOc2ccc(F)cc2)CC1OC` (centres unmarked) [Cisapride], the inhibition at 3 µM against hERG Y652A [1] is 39.1%; against hERG F656A [3] (setting [11]), 38.7%. For the same molecule, the inhibition at 5 µM stood at 57.7% at hERG Y652A [1] and 59.6% at hERG F656A [3] (setting [11]). The inhibition at 10 µM came out at 91.7% at hERG Y652A [1] and 75.5% on hERG F656A [3] (setting [11]). For the same molecule, the “binding affinity to 5HT-4 (agonist)” value in data set [2] was ~ 14 nM. This molecule also showed an inhibition at 1 µM at hERG F656A [3] (setting [12]) of around 80%. Besides, the IC50 in the data set with hERG (read-out: hERG1 channel inhibition affinity) is […]; with hERG (setting [13]), […].
Take `Cc1cccc(C)c1NC(=O)C1CCCCN1C` (centres unmarked) [Mepivacaine]: the IC50 in the data set with hERG (read-out: hERG IC50) was > 100 µM and 156 µM; in the data set on hERG (setting [14]), 156 µM.
As to `CCOc1cc(N)c(Cl)cc1C(=O)NCC1CN(Cc2ccc(F)cc2)CCO1` (centres unmarked) [Mosapride], the “affinity to WT hERG in FP assay” value on WT hERG was “much weaker affinity”. On hERG Y652A [1], this molecule gave an inhibition at 1 µM of 7.13%, an inhibition at 3 µM of 13.6%, an inhibition at 5 µM of 20.6% and an inhibition at 10 µM of 31.3 ± 3.65%. For the same molecule, 30 µM produced 66.8% inhibition against hERG Y652A [1]. The “Percent current inhibition hERG Y652A” value on hERG Y652A [4] was “very small percentage”. At hERG WT [5], the IC50 was found to be 5.36 µM. At hERG F656A [3] (setting [11]), this molecule came in with an inhibition at 1 µM of 11%, an inhibition at 3 µM of 12.4%, an inhibition at 5 µM of 16% and an inhibition at 10 µM of 25.7%. On hERG F656A [3] (setting [11]), this molecule registered an inhibition at 30 µM of 34.4% and an inhibition at 100 µM of 40.2%. The molecule also returned an inhibition at 1 µM against hERG F656A [3] (setting [12]) of 2%. Moreover, in the data set on hERG (setting [13]), the IC50 is 4.8 µM. Besides, on hERG Y652A [6], the IC50 turned out to be 17.4 µM. At hERG WT [7], this molecule came in with an inhibition at 1 µM of 13.1%, an inhibition at 3 µM of 33.5%, an inhibition at 5 µM of 45% and an inhibition at 10 µM of 68.7%. Also, testing at 30 µM at hERG WT [7] gave an inhibition of 92.5%. Moreover, the “Percent current inhibition hERG WT” value on hERG WT [8] is listed as “very small percentage”. The “Percent current inhibition hERG F656A” value on hERG F656A [9] is reported as “very small percentage”.
With `Cc1cccc(C)c1NC(=O)CC12CCCN1CCC2` [Pilsicainide], the IC50 is < 30 µM and ~20 µM with hERG (read-out: hERG IC50); 20.4 µM in the data set on hERG (setting [14]).
For `COc1ccccc1OCC(O)CN1CCN(CC(=O)Nc2c(C)cccc2C)CC1` (centres unmarked) [Ranolazine], the “Percent current inhibition hERG F656A” value on hERG F656A [10] (100 µM) was 21.37% ± 7.80. In addition, the inhibition at 10 µM against hERG F656A [10] (human, HEK cells stably expressing hERG F656A, pH 7.4, Percent current inhibition hERG F656A, 10 µM) worked out at 4.39%; against hERG WT [5] (human, HEK cells stably expressing hERG WT, Percent current inhibition hERG WT, 10 µM), 42.3%; at hERG Y652A [6] (human, HEK cells stably expressing hERG Y652A, pH 7.4, Percent current inhibition hERG Y652A, 10 µM) it was 2.4%. Moreover, the inhibition at 30 µM is 10.9% on hERG F656A [10] (human, HEK cells stably expressing hERG F656A, pH 7.4, Percent current inhibition hERG F656A, 30 µM); 77% on hERG WT [5] (human, HEK cells stably expressing hERG WT, Percent current inhibition hERG WT, 30 µM); 10.1% at hERG Y652A [6] (human, HEK cells stably expressing hERG Y652A, pH 7.4, Percent current inhibition hERG Y652A, 30 µM). The inhibition at 300 µM against hERG F656A [10] (human, HEK cells stably expressing hERG F656A, pH 7.4, Percent current inhibition hERG F656A, 300 µM) is 37.7%; against hERG WT [5] (human, HEK cells stably expressing hERG WT, Percent current inhibition hERG WT, 300 µM) it was 100%; on hERG Y652A [6] (human, HEK cells stably expressing hERG Y652A, pH 7.4, Percent current inhibition hERG Y652A, 300 µM) it was 64%. Moreover, the inhibition at 500 µM was found to be 49.6% against hERG F656A [10] (human, HEK cells stably expressing hERG F656A, pH 7.4, Percent current inhibition hERG F656A, 500 µM); 100% against hERG WT [5] (human, HEK cells stably expressing hERG WT, Percent current inhibition hERG WT, 500 µM); 84.6% at hERG Y652A [6] (human, HEK cells stably expressing hERG Y652A, pH 7.4, Percent current inhibition hERG Y652A, 500 µM). In addition, on hERG WT [5] (100 µM), the “Percent current inhibition hERG WT” value was 97.36% ± 0.89. Also, the inhibition at 100 µM was around 90% on hERG WT [5] (human, HEK cells stably expressing hERG WT, Percent current inhibition hERG WT, 100 µM) and 25% against hERG Y652A [6] (human, HEK cells stably expressing hERG Y652A, pH 7.4, Percent current inhibition hERG Y652A, 100 µM). For the same molecule, the IC50 with hERG (read-out: hERG IC50 from literature, Patch clamp HEK293 cells @ 37 ± 1 °C, ref Du et al.) is […]. The “Percent current inhibition hERG Y652A” value at hERG Y652A [6] (100 µM) is given as 24.62% ± 2.64.
